From patent US20220144823A1, “PYRAZOLOPYRIDINE DERIVATIVES AS INHIBITORS OF PASK” (Galapagos NV, priority 2019, published 2022)

Tests used:
human PASK [1] = biological target: T1, human PASK (Homo sapiens, UniProt Q96RG2); experiment: 33P radioactive kinase assay; type: biochemical; details: 33P radioactive PASK kinase assay, 10 μM ATP, ZIPtide 1 μM
T1 construct: purchased ThermoFisher Scientific PR7013A
Experimental: The principle of the ^33P radioactive kinase assay consists in measuring the incorporated ^33P into the ZIPtide peptide substrate when phosphorylated by human PASK using [^33P]-[…]-ATP and ATP, which correlates with kinase activity.
The test compounds are prepared as a serial dilution of 10 point dose responses with 1/5 dilution steps in 100% DMSO starting from 0.2 or 2 mM highest concentration, diluted 1/20 in water and 5 μL is transferred to the assay plates (Greiner, Cat #651201).
1% DMSO and 10 μM staurosporine final concentrations are used respectively as negative and positive controls.
11 μL of enzyme-substrate mixture is added on the assay plates. The reactions are started by adding 9 μL ATP mixture, consisting of non-labeled and ^33P-labeled ATP, on the assay plates.
The reactions are stopped by adding 25 μL phosphoric acid (150 mM) to the reactions.
The completely terminated kinase reactions are transferred using a harvester on pre-wetted UniFilter-96 plates (UniFilter-96 GF/B, PerkinElmer Inc., Cat #6005177).
After harvesting the kinase reactions, the filter plates are washed 6 times with phosphoric acid (75 mM). The back of the UniFilter-96 plates are sealed and 40 μL MicroScint-20 (PerkinElmer Inc., Cat #6013621) is added to each well. The top of each plate is sealed with TopSeal-A (PerkinElmer Inc., Cat #6050185). Read-out is performed with a TopCount instrument (PerkinElmer Inc.).
Raw data are generated following the read-out performed on the TopCount, used to calculate percentage inhibition (PIN) values and plotted to generate dose response curves and derive the average half maximal inhibitory concentrations (IC50) reported in Table VI.

[2] = biological target: T2, autophosphorylation of PASK at position Thr307 in Hek293 cells overexpressing PASK (Homo sapiens, UniProt Q96RG2); experiment: PASK autophosphorylation ELISA assay; type: cell-based; details: 24 h, ELISA readout
T2 construct: expressed in transfected cells; host or cells: Hek293
Experimental: The compounds of the invention are profiled in a cellular assay to determine their capacity to reduce the autophosphorylation levels of PASK at position Thr307 in Hek293 cells overexpressing PASK, using an ELISA-based readout.
At day 1, a 96-well cell assay plate is coated with poly-D-lysine (50 μL/well of a 0.05 mg/mL solution in PBS) and incubated for 1 h at 37° C. The plate is subsequently washed once with PBS and stored dry at RT until further use. Hek293 cells are transfected with a pcDNA3.1-PASK(FL,WT)-FLAG construct (SEQ ID1) and seeded in culture medium (DMEM+10% FBS) in a poly-D-lysine coated 96-well plate (0.3 μL JetPEI DNA transfection reagent (Polyplus-transfection SA, Cat #101-40), 10 ng construct and 90 ng pBluescript, 60000 cells per well). […] The cell plate is incubated overnight at 37° C., 5% CO2.
At day 2, the medium of the assay plate is removed and 100 μL of fresh medium (DMEM+10% FBS) is added to the plate. Cell plate is further incubated overnight at 37° C., 5% CO2. This to allow further expression of PASK protein.
At day 3, the medium is removed and replaced with 100 μL of serum free medium (DMEM). Test compound is added to the plate (8 points concentration curve with 1/3 dilution steps starting from 30 μM final concentration in 0.3% DMSO final). In the positive and negative control wells of the plate, 0.3% DMSO final is added. For each tested condition, duplicates are made for ELISA readout. Cell plate is incubated 24 h at 37° C., 5% CO2.
At day 4, the medium is removed and the plate is washed once with 100 μL/well PBS. Cells are lysed by adding 50 μL/well western blot lysis buffer (20 mM Tris pH 7.5, 150 mM NaCl and 1% Triton) to the plate. The assay plate is stored at −80° C. and thawed to perform the ELISA readout.
At day 1, the ELISA plate is coated with the mouse anti-FLAG antibody (2 μg/mL diluted in PBS, 100 μL/well) and incubated overnight at 4° C.
At day 2, the plate is washed once with 150 μL/well PBS. 200 μL/well blocking buffer (PBS with 3% BSA) is added and the plate is incubated for 4 h at RT. The plate is washed with 150 μL/well high salt washing buffer (20 mM Na2HPO4, 0.5% Triton X-100, 0.1% SDS, 0.1% BSA and 1 M NaCl) followed by one wash with 150 μL/well low salt washing buffer (20 mM Na2HPO4, 0.5% Triton X-100, 0.1% SDS, 0.1% BSA and 150 mM NaCl). Meanwhile, the cell lysate plate is thawed, two wells of the same condition are pooled (2×50 μL) and added to the ELISA plate. The ELISA plate is incubated overnight at 4° C.
At day 3, the ELISA plate is washed twice with 150 μL/well high salt washing buffer followed by two washes with low salt washing buffer. 100 μL/well detection antibody for pPASK (phospho-Akt substrate (RXXS*/T*) (110B7E) rabbit antibody (Cell Signaling Technology, Inc., Cat #9614) 2 μg/mL diluted in PBS with 3% BSA and 1×Halt™ protease and phosphatase inhibitor cocktail (Thermo Fisher Scientific, Inc., Cat #78447)) is added and incubated for 2 h at RT. The plate is washed twice with high and low salt wash buffer (150 μL/well) and 100 μL/well of an HRP antibody (swine anti-rabbit HRP antibody (Agilent Technologies, Inc., Cat #P039901) diluted 1/2000 in PBS with 3% BSA and 1×Halt™ protease and phosphatase inhibitor cocktail) is added to the plate, followed by an incubation for 1 h at RT in the dark (plate sealed with aluminum seal). The plate is washed twice with high and low salt wash buffer (150 μL/well) and 100 μL/well of SuperSignal™ ELISA Pico Chemiluminescent Substrate (Thermo Fisher Scientific, Inc., Cat #37070)(premix part 1 and part 2, 1/1) is added. The plate is incubated for 4 min at RT before measuring luminescence on the Luminoskan™ Ascent (Thermo Fisher Scientific, Inc.) (PMT default voltage; 100 ms integration time). […]

human PASK [3] = biological target: T1, human PASK; experiment: ADP-Glo kinase assay; type: biochemical; details: ADPGlo PASK kinase assay, 25 μM ATP, ZIPtide 25 μM
Summary of the method: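 Human recombinant PASK phosphorylating ZIPtide peptide with ATP, 120 min at RT; compounds in 10-point 1/5 dilution series, 1% DMSO final. ADP formed measured by ADP-Glo luminescence after ATP depletion; percent inhibition fitted to dose-response curves for averaged IC50.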

T1 sequence (Q96RG2 whole entry): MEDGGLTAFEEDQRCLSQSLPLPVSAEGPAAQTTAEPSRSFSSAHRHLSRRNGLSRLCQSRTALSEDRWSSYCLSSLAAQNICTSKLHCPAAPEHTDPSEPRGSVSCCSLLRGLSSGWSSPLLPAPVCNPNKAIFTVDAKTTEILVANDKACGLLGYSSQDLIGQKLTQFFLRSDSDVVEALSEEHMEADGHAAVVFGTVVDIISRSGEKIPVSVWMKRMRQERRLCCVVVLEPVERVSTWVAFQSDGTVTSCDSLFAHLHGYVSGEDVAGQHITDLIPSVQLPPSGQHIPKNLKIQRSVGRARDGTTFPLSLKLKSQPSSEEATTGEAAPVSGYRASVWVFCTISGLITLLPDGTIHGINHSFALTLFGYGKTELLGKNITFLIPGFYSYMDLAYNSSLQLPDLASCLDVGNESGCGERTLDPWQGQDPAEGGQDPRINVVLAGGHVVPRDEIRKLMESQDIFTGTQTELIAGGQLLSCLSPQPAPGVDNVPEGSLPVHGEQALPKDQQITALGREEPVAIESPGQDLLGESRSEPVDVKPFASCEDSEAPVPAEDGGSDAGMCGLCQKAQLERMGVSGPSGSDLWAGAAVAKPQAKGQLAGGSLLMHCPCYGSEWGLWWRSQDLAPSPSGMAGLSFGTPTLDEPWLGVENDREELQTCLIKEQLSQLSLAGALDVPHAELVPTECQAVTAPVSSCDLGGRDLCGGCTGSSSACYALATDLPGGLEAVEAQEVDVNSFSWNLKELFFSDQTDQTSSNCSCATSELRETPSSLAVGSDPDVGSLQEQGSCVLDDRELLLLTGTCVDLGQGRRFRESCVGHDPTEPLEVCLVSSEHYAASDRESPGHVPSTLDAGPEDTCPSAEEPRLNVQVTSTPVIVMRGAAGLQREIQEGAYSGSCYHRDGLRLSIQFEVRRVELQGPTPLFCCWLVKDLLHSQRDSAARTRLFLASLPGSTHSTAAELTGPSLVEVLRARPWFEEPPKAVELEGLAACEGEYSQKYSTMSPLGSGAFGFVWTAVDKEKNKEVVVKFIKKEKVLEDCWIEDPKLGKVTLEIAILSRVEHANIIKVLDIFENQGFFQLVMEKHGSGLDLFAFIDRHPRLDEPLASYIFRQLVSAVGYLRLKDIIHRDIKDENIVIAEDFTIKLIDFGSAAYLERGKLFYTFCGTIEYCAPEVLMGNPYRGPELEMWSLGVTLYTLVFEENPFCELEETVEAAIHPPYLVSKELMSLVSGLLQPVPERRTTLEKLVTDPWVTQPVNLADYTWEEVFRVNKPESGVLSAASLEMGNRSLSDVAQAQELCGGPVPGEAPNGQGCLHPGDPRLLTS
T2 sequence (Q96RG2 with tags, fused parts or gaps): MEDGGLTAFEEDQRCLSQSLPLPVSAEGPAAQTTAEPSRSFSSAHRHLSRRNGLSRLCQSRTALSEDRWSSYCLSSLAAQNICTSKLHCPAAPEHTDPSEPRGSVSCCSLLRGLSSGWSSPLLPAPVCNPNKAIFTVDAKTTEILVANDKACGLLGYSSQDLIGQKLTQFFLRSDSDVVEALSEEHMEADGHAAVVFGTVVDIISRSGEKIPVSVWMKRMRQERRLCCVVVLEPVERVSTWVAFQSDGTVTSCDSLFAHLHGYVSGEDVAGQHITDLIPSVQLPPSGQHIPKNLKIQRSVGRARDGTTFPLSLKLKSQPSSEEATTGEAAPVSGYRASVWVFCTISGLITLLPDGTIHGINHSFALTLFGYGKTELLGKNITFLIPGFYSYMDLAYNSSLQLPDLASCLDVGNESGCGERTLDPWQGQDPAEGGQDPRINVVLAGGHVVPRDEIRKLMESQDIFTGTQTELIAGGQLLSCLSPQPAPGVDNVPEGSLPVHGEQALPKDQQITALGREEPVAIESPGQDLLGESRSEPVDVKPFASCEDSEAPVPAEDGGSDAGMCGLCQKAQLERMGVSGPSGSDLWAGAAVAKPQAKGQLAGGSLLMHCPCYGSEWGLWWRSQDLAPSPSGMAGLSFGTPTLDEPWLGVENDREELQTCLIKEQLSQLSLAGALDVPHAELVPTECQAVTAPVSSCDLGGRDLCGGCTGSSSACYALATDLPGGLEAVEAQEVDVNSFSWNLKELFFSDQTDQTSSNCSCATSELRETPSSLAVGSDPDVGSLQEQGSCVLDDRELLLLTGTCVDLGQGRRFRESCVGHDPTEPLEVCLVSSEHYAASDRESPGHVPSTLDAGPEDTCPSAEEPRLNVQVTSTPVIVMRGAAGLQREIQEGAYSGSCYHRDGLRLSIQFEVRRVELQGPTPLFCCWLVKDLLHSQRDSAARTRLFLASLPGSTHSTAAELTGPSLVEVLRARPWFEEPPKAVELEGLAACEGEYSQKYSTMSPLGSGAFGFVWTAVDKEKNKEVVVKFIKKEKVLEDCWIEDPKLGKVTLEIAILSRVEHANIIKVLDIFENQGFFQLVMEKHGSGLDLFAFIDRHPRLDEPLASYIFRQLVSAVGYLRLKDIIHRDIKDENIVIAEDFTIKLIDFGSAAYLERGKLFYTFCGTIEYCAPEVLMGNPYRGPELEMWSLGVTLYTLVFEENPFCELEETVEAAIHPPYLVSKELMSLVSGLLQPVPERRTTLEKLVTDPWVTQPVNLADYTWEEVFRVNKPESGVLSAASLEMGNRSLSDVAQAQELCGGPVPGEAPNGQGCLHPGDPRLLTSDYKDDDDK

Compound | IC50 (human PASK [1]) [nM] | IC50 [2] [nM] | IC50 (human PASK [3]) [nM]
COc1nc(-c2ccn3ncc(-c4c(C)nn(C(F)F)c4C)c3c2)sc1C(=O)O [Cpd 79, 2-[3-[1-(difluoromethyl)-3,5-dimethyl-pyrazol-4-yl]pyrazolo[1,5-a]pyridin-5-yl]-4-methoxy-thiazole-5-carboxylic acid] |  | > 5000 | 0.01 to 10
COc1nc(-c2ccn3ncc(-c4c(C)nn(CC(F)(F)F)c4C)c3c2)sc1C(=O)O [Cpd 77, 2-[3-[3,5-dimethyl-1-(2,2,2-trifluoroethyl)pyrazol-4-yl]pyrazolo[1,5-a]pyridin-5-yl]-4-methoxy-thiazole-5-carboxylic acid] |  | > 5000 | 0.01 to 10
COc1nc(-c2ccn3ncc(-c4c(C)nn(C(C)C(F)(F)F)c4C)c3c2)sc1C(=O)O (stereo not shown) [Cpd 85, 2-[3-[3,5-dimethyl-1-(2,2,2-trifluoro-1-methyl-ethyl)pyrazol-4-yl]pyrazolo[1,5-a]pyridin-5-yl]-4-methoxy-thiazole-5-carboxylic acid] |  | 1000 to 5000 | 0.01 to 10
COc1nn(-c2ccn3ncc(-c4c(C(F)(F)F)nn(C)c4C)c3c2)cc1C(=O)O [Cpd 78, 1-[3-[1,5-dimethyl-3-(trifluoromethyl)pyrazol-4-yl]pyrazolo[1,5-a]pyridin-5-yl]-3-methoxy-pyrazole-4-carboxylic acid] |  | 1000 to 5000 | 0.01 to 10
COc1nc(-c2ccn3ncc(-c4c(C(F)(F)F)nn(C)c4C)c3c2)sc1C(=O)O [Cpd 89, 2-[3-[1,5-dimethyl-3-(trifluoromethyl)pyrazol-4-yl]pyrazolo[1,5-a]pyridin-5-yl]-4-methoxy-thiazole-5-carboxylic acid] |  | 1000 to 5000 | 0.01 to 10
Cc1c(-c2cnn3ccc(-n4cc(C(=O)O)cn4)cc23)c(C(F)(F)F)nn1C [Cpd 67, 1-[3-[1,5-dimethyl-3-(trifluoromethyl)pyrazol-4-yl]pyrazolo[1,5-a]pyridin-5-yl]pyrazole-4-carboxylic acid] |  | 1000 to 5000 | 0.01 to 10
Cc1c(-c2cnn3ccc(-n4cc(C(=O)O)cn4)cc23)c(C(F)(F)F)nn1C(C)C [Cpd 76, 1-[3-[1-isopropyl-5-methyl-3-(trifluoromethyl)pyrazol-4-yl]pyrazolo[1,5-a]pyridin-5-yl]pyrazole-4-carboxylic acid] |  | 1000 to 5000 | 0.01 to 10
COc1nn(-c2ccn3ncc(-c4c(C)nn(C(F)F)c4C)c3c2)cc1C(=O)O [Cpd 71, 1-[3-[1-(difluoromethyl)-3,5-dimethyl-pyrazol-4-yl]pyrazolo[1,5-a]pyridin-5-yl]-3-methoxy-pyrazole-4-carboxylic acid] |  | > 5000 | 0.01 to 10

Results, then the compound that gave them:

IC50 (human PASK [1]) [nM] | IC50 [2] [nM] | IC50 (human PASK [3]) [nM] | Compound
0.01 to 10 | 0.1 to 500 | 0.01 to 10 | CCn1nc(C)c(-c2cnn3ccc(-c4nc(C5CC5)c(C(=O)O)s4)cc23)c1C [Cpd 38, 4-cyclopropyl-2-[3-(1-ethyl-3,5-dimethyl-pyrazol-4-yl)pyrazolo[1,5-a]pyridin-5-yl]thiazole-5-carboxylic acid]
0.01 to 10 | 1000 to 5000 | 0.01 to 10 | Cc1nn(C)c(C)c1-c1cnn2ccc(-c3cc(C(N)=O)co3)cc12 [Cpd 43, 5-[3-(1,3,5-trimethylpyrazol-4-yl)pyrazolo[1,5-a]pyridin-5-yl]furan-3-carboxamide]
0.01 to 10 | 0.1 to 500 | 0.01 to 10 | Cc1nn(CC(F)(F)F)c(C)c1-c1cnn2ccc(-c3nc(C4CC4)c(C(=O)O)s3)cc12 [Cpd 42, 4-cyclopropyl-2-[3-[3,5-dimethyl-1-(2,2,2-trifluoroethyl)pyrazol-4-yl]pyrazolo[1,5-a]pyridin-5-yl]thiazole-5-carboxylic acid]
0.01 to 10 | 500 to 1000 | 0.01 to 10 | CCOc1nc(-c2ccn3ncc(-c4c(C)nn(C)c4C)c3c2)sc1C(=O)O [Cpd 9, 4-ethoxy-2-[3-(1,3,5-trimethylpyrazol-4-yl)pyrazolo[1,5-a]pyridin-5-yl]thiazole-5-carboxylic acid]
0.01 to 10 | 0.1 to 500 |  | Cc1c(-c2cnn3ccc(-c4cc(C(=O)O)co4)cc23)c(C(F)(F)F)nn1C [Cpd 23, 5-[3-[1,5-dimethyl-3-(trifluoromethyl)pyrazol-4-yl]pyrazolo[1,5-a]pyridin-5-yl]furan-3-carboxylic acid]
0.01 to 10 | 1000 to 5000 | 0.01 to 10 | Cc1noc(C)c1-c1cnn2ccc(-c3cc(C(=O)O)c(C4CC4)o3)cc12 [Cpd 32, 2-cyclopropyl-5-[3-(3,5-dimethylisoxazol-4-yl)pyrazolo[1,5-a]pyridin-5-yl]furan-3-carboxylic acid]
0.01 to 10 | 1000 to 5000 | 0.01 to 10 | Cc1nn(C(F)F)c(C)c1-c1cnn2ccc(-c3cc(C(=O)O)co3)cc12 [Cpd 35, 5-[3-[1-(difluoromethyl)-3,5-dimethyl-pyrazol-4-yl]pyrazolo[1,5-a]pyridin-5-yl]furan-3-carboxylic acid]
 | 0.1 to 500 | 0.01 to 10 | Cc1nn(C)c(C)c1-c1cnn2ccc(-c3nc(C4CC4)c(C(=O)O)s3)cc12 [Cpd 86, 4-cyclopropyl-2-[3-(1,3,5-trimethylpyrazol-4-yl)pyrazolo[1,5-a]pyridin-5-yl]thiazole-5-carboxylic acid]
 | 0.1 to 500 | 0.01 to 10 | CCOc1nc(-c2ccn3ncc(-c4c(C)nn(CC(F)(F)F)c4C)c3c2)sc1C(=O)O [Cpd 70, 2-[3-[3,5-dimethyl-1-(2,2,2-trifluoroethyl)pyrazol-4-yl]pyrazolo[1,5-a]pyridin-5-yl]-4-ethoxy-thiazole-5-carboxylic acid]
